Source: patent US6462055B2, “Alpha-methylbenzyl-containing thiourea inhibitors of herpes viruses containing a phenylenediamine group” (Wyeth, priority 1998, dated 2002)
In brackets after ≈: the same amount, converted by molar mass.

Legend:
[1] = tested on: HCMV recombinant mutant virus (RV145); test: microbe, parasite or virus in culture; type: cell-based, human cytomegalovirus; details: for IC50: Human betaherpesvirus 5, read-out: IC50 ug/ml HCMV, HCMV
Source text: Microtiter plate assay. Ninety-six well plate cultures of human foreskin fibroblasts are infected in the presence of inhibitor compound with a HCMV recombinant mutant virus whose genome contains the prokaryotic beta-glucuronidase gene (Jefferson, R. A., S. M. Burgess, and D. Hirsh. 1986. Beta-glucuronidase from Escherichia coli as a gene fusion marker. Proc. Natl. Acad. Sci. USA 83:8447-8451) whose expression is controlled by a viral promoter. An example of such a virus is RV145 (Jones, T. R., V. P. Muzithras, and Y. Gluzman. 1991. Replacement mutagenesis of the human cytomegalovirus genome: US10 and US11 gene products are nonessential. J. Virol. 65:5860-5872). Since it is under the control of a viral promoter, beta-glucuronidase expression is an indirect indicator of growth and replication of HCMV in this assay. At 96 hours post-infection, the infected cell lysates are prepared (using 50 mM sodium phosphate [pH7.0]containing 0.1% Triton X-100 and 0.1% sarkosyl) and assayed for beta-glucuronidase activity using a substrate for the enzyme which when cleaved yields either a product which can be measured […] in a spectrophotometer or fluorescently in a microfluorimeter. Examples of such substrates are p-nitrophenyl-beta-D-glucuronide and methylumbelliferylglucuronide, respectively. The presence of an antiviral compound is indicated by the reduced expression of the HCMV genome resident beta-glucuronidase gene, compared to the absence of inhibitor. […] Data from this assay generated using varying amounts of inhibitor compound is also used to estimate the IC50 of an inhibitor compound.

HSV-1 = test: HSV Antiviral (ELISA) Assay in Vero cells; type: cell-based, herpes simplex virus type 1; details: HSV-1, Vero cells; for IC50: Human alphaherpesvirus 1, read-out: IC50 (ug/ml) HSV
Procedure, shortened: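 Viral replication was quantified by cell-fixed ELISA for HSV glycoprotein D, using a β-galactosidase reporter and fluorogenic umbelliferyl substrate, about 24 h after HSV-1 infection (MOI 0.006) of Vero cells. Compounds, at several concentrations, were added 30 min pre-infection. IC50 was derived from fluorescence relative to the compound-free signal.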

VZV strain Ellen = test: VZV Antiviral (ELISA) Assay in human foreskin fibroblast cells; type: cell-based, varicella-zoster virus; details: for IC50: read-out: IC50 (ug/ml) VZV
Procedure, shortened: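 Cell-based ELISA: infected/uninfected HFF mix (VZV Ellen, MOI <0.1) exposed to compound in DMEM/2% FBS for 3 days at 37° C. Anti-gpII monoclonal plus β-galactosidase-linked secondary, detected as 4-methylumbelliferone fluorescence; IC50 derived by comparing fluorescence with versus without compound.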

[2] = Human alphaherpesvirus 3, Fibroblast

Compound	IC50 ug/ml HCMV [1]	IC50 (ug/ml) HSV (HSV-1)	IC50 (ug/ml) VZV (VZV strain Ellen)	% inhibition 10 ug/ml VZV (VZV strain Ellen)	IC50 [1]	IC50 (HSV-1)	IC50 (VZV strain Ellen; [2])	inhibition at 10 µg/mL (VZV strain Ellen; Human alphaherpesvirus 3, Fibroblast, read-out: % inhibition 10 ug/ml VZV, 10 ug/ml)
COc1c(Cl)cc(NC(=S)Nc2ccc(NC(=O)c3ccc(F)cc3)cc2)cc1Cl [Example 133]	0.6 µg/mL (≈ 1.29 µM)	7 µg/mL (≈ 15.1 µM)	>10 µg/mL	36%	–	–	–	–
COc1cccc(C(=O)Nc2ccc(NC(=S)Nc3cc(Cl)c(OC)cc3OC)cc2)c1 [Example 120]	5 µg/mL (≈ 10.6 µM)	0.8 µg/mL (≈ 1.7 µM)	>10 µg/mL	25%	–	–	–	–
CN(C)c1c(Cl)cccc1NC(=S)Nc1ccc(NC(=O)c2c(F)cccc2F)cc1 [Example 504]	2 µg/mL (≈ 4.34 µM)	6 µg/mL (≈ 13 µM)	4.5 µg/mL (≈ 9.76 µM)	99%	–	–	–	–
COc1ccc(NC(=S)Nc2ccc(NC(=O)c3ccccc3F)cc2)cc1F [Example 995, 2-Fluoro-N-{4-[3-(3-fluoro-4-methoxy-phenyl)-thioureido]-phenyl}-benzamide]	–	–	–	–	> 10 µg/mL	> 10 µg/mL	> 10 µg/mL	–
Nc1ccc(NC(=S)Nc2ccc(NC(=O)c3ccccc3F)cc2)cc1Cl [Example 404]	8 µg/mL (≈ 19.3 µM)	0.4 µg/mL (≈ 0.964 µM)	>10 µg/mL	15%	–	–	–	–
COc1cc(OC)c(NC(=S)Nc2ccc(NC(=O)c3ccccc3NC(C)=O)cc2)cc1Cl [Example 189]	>10 µg/mL	2.5 µg/mL (≈ 5.01 µM)	>10 µg/mL	59%	–	–	–	–
COc1ccccc1C(C)NC(=S)Nc1ccc(NC(=O)c2ccccc2F)cc1 (stereo not shown) [Example 788]	1.8 µg/mL (≈ 4.25 µM)	>10 µg/mL	>7.5 µg/mL	–	–	–	–	–
CC(NC(=S)Nc1ccc(NC(=O)c2ccccc2F)cc1)c1ccccc1F (stereo not shown) [Example 778]	–	–	–	–	0.8 µg/mL (≈ 1.94 µM)	> 10 µg/mL	3 µg/mL (≈ 7.29 µM)	–
CC(NC(=S)Nc1ccc(NC(=O)c2ccccc2F)cc1)c1ccccc1 (stereo not shown) [Example 589]	7 µg/mL (≈ 17.8 µM)	>10 µg/mL	0.36 µg/mL (≈ 0.915 µM)	–	–	–	–	–
O=C(Nc1ccc(NC(=S)NCc2ccc(Cl)c(Cl)c2)cc1)c1ccccc1F [Example 538]	>10 µg/mL	>10 µg/mL	10 µg/mL (≈ 22.3 µM)	–	–	–	–	–
COc1cc(OC)c(NC(=S)Nc2ccc(NC(=O)c3ccccc3C(=O)O)cc2)cc1Cl [Example 184]	>50 µg/mL	>50 µg/mL	>10 µg/mL	–	–	–	–	–
COc1cc(OC)c(NC(=S)Nc2ccc(NC(=O)c3cccc4c3OCO4)cc2)cc1Cl [Example 255]	>10 µg/mL	1.2 µg/mL (≈ 2.47 µM)	>10 µg/mL	0%	–	–	–	–
O=C(Nc1ccc(NC(=S)Nc2ccc(Cl)c(C(F)(F)F)c2)cc1)c1c(F)cccc1F [Example 380]	>10 µg/mL	>10 µg/mL	>10 µg/mL	50%	–	–	–	–
Cc1ccc(NC(=S)Nc2ccc(NC(=O)c3ccccc3F)cc2)cc1F [Example 997, 2-Fluoro-N-{4-[3-(3-fluoro-4-methyl-phenyl)-thioureido]-phenyl}-benzylamide]	4 µg/mL (≈ 10.1 µM)	1.9 µg/mL (≈ 4.78 µM)	>10 µg/mL	–	–	–	–	–
CS(=O)(=O)c1ccc(NC(=S)Nc2ccc(NC(=O)c3c(F)cccc3F)cc2)cc1Cl [Example 392]	0.5 µg/mL (≈ 1.01 µM)	>10 µg/mL	2 µg/mL (≈ 4.03 µM)	92%	–	–	–	–
CCOc1ccc(NC(=S)Nc2ccc(NC(=O)c3ccccc3F)cc2)cc1Cl [Example 806]	>10 µg/mL	>10 µg/mL	>7.5 µg/mL	–	–	–	–	–
CCSc1ccc(NC(=S)Nc2ccc(NC(=O)c3ccccc3F)cc2)cc1Cl [Example 386]	2 µg/mL (≈ 4.35 µM)	>10 µg/mL	>10 µg/mL	29%	–	–	–	–
COc1cc(OC)c(NC(=S)Nc2ccc(NC(=O)c3ccccc3F)cc2Cl)cc1Cl [Example 355]	>10 µg/mL	0.035 µg/mL (≈ 0.0708 µM)	>10 µg/mL	40%	–	–	–	–

Compound	IC50 ug/ml HCMV [1]	IC50 (ug/ml) HSV (HSV-1)	IC50 (ug/ml) VZV (VZV strain Ellen)	% inhibition 10 ug/ml VZV (VZV strain Ellen)	IC50 [1]	IC50 (HSV-1)	IC50 (VZV strain Ellen; [2])	inhibition at 10 µg/mL (VZV strain Ellen; Human alphaherpesvirus 3, Fibroblast, read-out: % inhibition 10 ug/ml VZV, 10 ug/ml)
N-{4-[3-(3-Butylsulfonyl-phenyl)-thioureido]-phenyl}-2-fluoro-benzamide [Example 966]	2.5 µg/mL	7 µg/mL	8 µg/mL	95%	–	–	–	–
CC(NC(=S)Nc1ccc(NC(=O)c2ccccc2F)cc1)c1ccccc1Cl (stereo not shown) [Example 784]	1.1 µg/mL (≈ 2.57 µM)	>10 µg/mL	0.7 µg/mL (≈ 1.64 µM)	–	–	–	–	–
CCCCN(C)c1cc(NC(=S)Nc2ccc(NC(=O)c3ccccc3F)cc2)cc(C(F)(F)F)c1 [Example 598]	>10 µg/mL	>10 µg/mL	>10 µg/mL	–	–	–	–	–
O=C(Nc1ccc(NC(=S)Nc2cc(Cl)c(Cl)c(Cl)c2)cc1)c1ccccc1F [Example 937, 2-Fluoro-N-{4-[3-(3,4,5-trichloro-phenyl)-thioureido]-phenyl}-benzamide]	–	–	–	–	2 µg/mL (≈ 4.27 µM)	0.7 µg/mL (≈ 1.49 µM)	> 10 µg/mL	25%
Cc1ccc(C(C)NC(=S)Nc2ccc(NC(=O)c3ccccc3F)cc2)cc1 (stereo not shown) [Example 782]	0.9 µg/mL (≈ 2.21 µM)	>10 µg/mL	3 µg/mL (≈ 7.36 µM)	–	–	–	–	–
COc1ccccc1C(=O)Nc1ccc(NC(=S)NC(C)c2ccc(Br)cc2)cc1 (stereo not shown) [Example 1019, N-(4-{3-[1-(4-Bromo-phenyl)-ethyl]-thioureido}-phenyl)-2-methoxy-benzamide]	–	–	–	–	2.6 µg/mL (≈ 5.37 µM)	> 10 µg/mL	0.05 µg/mL (≈ 0.103 µM)	–
O=C(CN1CCCCC1)Nc1ccc(NC(=S)Nc2ccc(NC(=O)c3ccccc3F)cc2)cc1Cl [Example 364]	>10 µg/mL	>10 µg/mL	>15 µg/mL	73%	–	–	–	–
CC(NC(=S)Nc1ccc(NC(=O)c2ccccc2F)cc1)c1ccc2ccccc2c1 (stereo not shown) [Example 799]	1.7 µg/mL (≈ 3.83 µM)	>10 µg/mL	>7.5 µg/mL	–	–	–	–	–
COc1cc(OC)c(NC(=S)Nc2ccc(NC(=O)c3ccccc3O)cc2)cc1Cl [Example 139]	6 µg/mL (≈ 13.1 µM)	6 µg/mL (≈ 13.1 µM)	4 µg/mL (≈ 8.73 µM)	95%	–	–	–	–
COc1cc(OC)c(NC(=S)Nc2ccc(NC(=O)c3cccc([N+](=O)[O-])c3)cc2)cc1Cl [Example 135]	5 µg/mL (≈ 10.3 µM)	1.5 µg/mL (≈ 3.08 µM)	>10 µg/mL	0%	–	–	–	–
CC(O)c1cccc(NC(=S)Nc2ccc(NC(=O)c3ccccc3F)cc2)c1 (stereo not shown) [Example 448]	9 µg/mL (≈ 22 µM)	>10 µg/mL	>10 µg/mL	0%	–	–	–	–
O=C(Nc1ccc(NC(=S)Nc2cc(C(F)(F)F)cc(C(F)(F)F)c2)cc1)c1ccccc1F [Example 517]	1.1 µg/mL (≈ 2.19 µM)	>10 µg/mL	>10 µg/mL	5%	–	–	–	–
CC(NC(=S)Nc1ccc(NC(=O)c2ccccc2F)cc1)c1ccc(N(C)C)cc1 (stereo not shown) [Example 793]	3.2 µg/mL (≈ 7.33 µM)	9 µg/mL (≈ 20.6 µM)	3.1 µg/mL (≈ 7.1 µM)	–	–	–	–	–
CC(NC(=S)Nc1ccc(NC(=O)c2ccccc2Cl)cc1)c1ccc(F)cc1 (stereo not shown) [Example 755]	>10 µg/mL	>10 µg/mL	7 µg/mL (≈ 16.4 µM)	–	–	–	–	–
CC(NC(=S)Nc1ccc(NC(=O)c2cccc(F)c2)cc1)c1ccc(F)cc1 (stereo not shown) [Example 800]	–	–	–	–	> 10 µg/mL	> 10 µg/mL	> 7.5 µg/mL	–
Cc1ccc(NC(=S)Nc2ccc(NC(=O)c3ccccc3C)cc2)cc1Cl [Example 234]	1 µg/mL (≈ 2.44 µM)	0.2 µg/mL (≈ 0.488 µM)	>10 µg/mL	68%	–	–	–	–
NNC(=O)c1cccc(NC(=S)Nc2ccc(NC(=O)c3ccccc3F)cc2)c1 [Example 463]	>10 µg/mL	>10 µg/mL	>10 µg/mL	19%	–	–	–	–
